The numbers were not newly measured in US20200367500A1, “MICROCAPSULES WITH BIOCIDES FOR THEIR INCORPORATION INTO REPELLENT AND/OR INSECTICIDE COATINGS” (priority 2019, published 2020), which cites them from elsewhere.

“Also recorded” adds a separate entry of the source. Like-named read-outs stand apart in the source and are kept apart here.

The conditions of the data set: for Decomposition time (Mean life): aqueous medium; for Stability in aqueous medium, in words: pH as stated in the value.

As for `CCOP(=S)(OCC)Oc1nc(Cl)c(Cl)cc1Cl` [Chlorpyrifos], the “Stability in aqueous medium, in words” value is “Stable in neutral and slightly”. Further, the “Decomposition time (Mean life)” value (pH 10) was 7 days.

`CC1(C)C(C=C(Cl)Cl)C1C(=O)OC(C#N)c1cccc(Oc2ccccc2)c1` (centres unmarked) [Cypermethrin]: for the setting “pH 9”, the “Decomposition time (Mean life)” value is 7 days.

For the molecule `C=CCC1=C(C)C(OC(=O)C2C(C=C(C)C)C2(C)C)CC1=O` [D-allethrin], the “Stability in aqueous medium, in words” value was “Stable at pH 5 after 31 days”. The “Decomposition time (Mean life)” value (pH 7) is 500 days. The “Decomposition time (Mean life)” value (pH 9) was “(4.3 days)”.

Regarding `CC1(C)[C@H](C(=O)O[C@H](C#N)c2cccc(Oc3ccccc3)c2)[C@@H]1C=C(Br)Br` [Deltamethrin], the “Stability in aqueous medium, in words” value is “more stable in medium acid solutions”. In addition, the “Decomposition time (Mean life)” value (pH 7) is 0.33 days.

As for `CCOP(=S)(OCC)Oc1cc(C)nc(C(C)C)n1` [Diazinon], the “Decomposition time (Mean life)” value was 31 days (pH 5), 185 days (pH 7.5) and 136 days (pH 9).

Turning to `O=C(NC(=O)c1c(F)cccc1F)Nc1ccc(Cl)cc1` [Diflubenzuron], the “Stability in aqueous medium, in words” value is recorded as “Stable in a pH range from 5 to 7; also recorded: Hydrolyzed at pH 9”.

Turning to `CCOC(=O)CC(SP(=S)(OC)OC)C(=O)OCC` (centres unmarked) [Malathion], the “Stability in aqueous medium, in words” value is recorded as “Quickly hydrolyzed at pH over 7. The optimal pH”.

`CC1(C)C(C=C(Cl)Cl)C1C(=O)OCc1cccc(Oc2ccccc2)c1` (centres unmarked) [Permethrin]: the “Stability in aqueous medium, in words” value is “Stable at pH between 5 and 6”.

As for `CCN(CC)c1nc(C)cc(OP(=S)(OC)OC)n1` [Pirimiphos-methyl], the “Decomposition time (Mean life)” value (pH 5) was 7 days and the “Decomposition time (Mean life)” value (pH 8) was 5 days.

Regarding `CC(COc1ccc(Oc2ccccc2)cc1)Oc1ccccn1` (centres unmarked) [Pyriproxifen], the “Stability in aqueous medium, in words” value was “Stable in pH between 4 and 9”.
